Like-named read-outs stand apart in the source and are kept apart here.
What was measured:
K562 cells = assay: Cell viability assay (CellTiter-Glo); format: cell-based; conditions: Homo sapiens
Description: A concentration–response curve of CBK115334 was generated using the Bravo liquid handling system (serial dilution of a 50 mM stock solution was done in 100% DMSO). A total of 150 nl of the serially diluted solutions and controls (positive control 0.67 mM staurosporine and negative control DMSO) were transferred to a white 384-well assay plate (3570, Corning) by means of acoustic dispensing (Echo 550, Labcyte). A Multidrop reagent dispenser (Thermo Scientific) was used to dispense 30 μl of a K562 cell suspension at a density of 33 × 10^3 cells per ml in supplemented cell culture medium. The cells were incubated at 37 °C in the presence of 5% CO2 for 72 h before addition of 30 μl CellTiter-Glo Luminescent Cell Viability Assay reagent (Promega) using a Multidrop Combi reagent dispenser (Thermo Scientific). The plate was placed on a plate shaker for 15 min prior to detection of the luminescence signal in an Envision plate reader (PerkinElmer). The final highest concentration of CBK115334 in the incubation with cells was 250 μM and the final concentration of the positive control staurosporine was 3 μM. All samples contained 0.5% DMSO. The data were analyzed using microsoft excel and GraphPad Prism 6.

TS = TS (Homo sapiens, UniProt P04818); assay: Surface plasmon resonance; format: binding; design: His6 tag with TEV site (vector-encoded by pNIC28-Bsa4); made in house; host or cells: Rosetta BL21-DE3 Escherichia coli; conditions: 200 μM dUMP, 20 nM to 10 μM compound; signal does not saturate
Description: A concentration series (20 nM to 10 μM) of CBK115334 was injected over the prepared surface for 60 s and allowed to dissociate for 60 s with a flow rate of 70 μl min^−1 at 25 °C. The assay buffer was 20 mM HEPES, 150 mM NaCl, pH 7.5 and 0.005% Tween-20 supplemented with 1% DMSO and 200 μM dUMP. Response data was processed using the BIAevaluation software. Responses were double referenced and solvent-corrected. The data sets were fitted to 1:1 steady-state model for determination of binding constants.

TS in K562 cell lysates = target: T1, TS in K562 cell lysates (Homo sapiens, UniProt P04818); assay: Western blot CETSA on K562 cell lysates; format: binding
T1 construct: screening in live, non-engineered cells expressing thymidylate synthase; endogenous in cells; host or cells: K562 (human myelogenous leukemia) cells
Description: For the cell lysate thermal shift experiments, cultured K562 cells were harvested and washed with Hank's Balanced Salt Solution. The cells were diluted in lysis buffer supplemented with complete protease inhibitor cocktail. The cell suspensions were freeze-thawed three times using liquid nitrogen and passed through a 27″ gauge needle five times. The soluble fraction (lysate) was separated from the cell debris by centrifugation at 20,000 × g for 20 min at 4 °C. For the thermal aggregation curve experiments cell lysates were diluted with lysis buffer supplemented with 200 μM dUMP and divided into two aliquots, with one aliquot being treated with ligand and the other aliquot with vehicle (control). […] The supernatants containing the remaining soluble proteins were transferred to new 0.2 ml microtubes and analyzed by sodium dodecyl sulfate polyacrylamide gel electrophoresis (SDS-PAGE) followed by western blot analysis.
NuPage Novex Bis-Tris 4–12% polyacrylamide gels with NuPAGE MES SDS running buffer (Life Technologies) were used for separation of proteins in the samples. […] Chemiluminescence intensities were detected and quantified using a ChemiDoc XRS+ imaging system (Bio-Rad) with Image Lab software (Bio-Rad).

[1] = target: T2, human thymidylate synthase (TS) (Homo sapiens, UniProt P04818); assay: ITDRF CETSA at 50 °C, AlphaScreen detection, live K562 cells; format: cell-based; conditions: 2 h preincubation, 50 °C, unit taken from curve axis log [cmp] (M), read-out: ITDRF CETSA (hit confirmation)
T2 construct: screening in live, non-engineered cells expressing thymidylate synthase; endogenous in cells; host or cells: K562 (human myelogenous leukemia) cells
Description: For the […] experiments 11-point dose-response curves with three-fold difference in concentration between wells were generated using the Bravo liquid handling system (all serial dilutions were done in 100% DMSO). […] The concentration of DMSO was 0.5% in all samples. […] The assay ready plates were prepared as outlined above for the screen.
The screen procedure started with the addition of 5 μl of a suspension of K562 cells at a density of 10 million cells per ml to all wells of a 384 well hardshell PCR plate (HSR480, BIORAD) using an electronic multichannel pipette (Biohit). […] For the time-course experiments the incubation times were altered to include also 10 min, 30 min and 6 h. […] After the incubation step the plates were transiently heated at 50 °C for 3 min followed by a controlled cooling to 20 °C for 1 min using a real-time PCR machine (LightCycler480 system, Roche). Plate handling was then as described above for the thermal aggregation experiments. The data were analyzed using microsoft excel and GraphPad Prism 6.
A calculation of the average and standard error of means for each set of controls also allowed an illustration of how these responses varied over the 32 screening plates. The Z′ factor[38] is commonly used as a measure of how well the assay separates between the controls and this was calculated as described based on the calculated averages and standard deviations of the controls on a per plate basis. For the Tagg shift and the […] experiments the data were analyzed in GraphPad Prism using the Boltzmann sigmoid equation and the saturation binding curve (rectangular hyperbola; binding isotherm) function, respectively. As already discussed[14] these methods make use of equilibrium models for data analysis although the methodology depends on the irreversible aggregation of denatured material. For this reason we refer to the observed responses as apparent and isothermal dose-response fingerprints and are careful with any quantitative interpretations, being well aware of their dependency on experimental conditions. Experiments are on-going to address the quantitative interpretation of CETSA data.

T1 sequence (P04818 2-313 limits assumed): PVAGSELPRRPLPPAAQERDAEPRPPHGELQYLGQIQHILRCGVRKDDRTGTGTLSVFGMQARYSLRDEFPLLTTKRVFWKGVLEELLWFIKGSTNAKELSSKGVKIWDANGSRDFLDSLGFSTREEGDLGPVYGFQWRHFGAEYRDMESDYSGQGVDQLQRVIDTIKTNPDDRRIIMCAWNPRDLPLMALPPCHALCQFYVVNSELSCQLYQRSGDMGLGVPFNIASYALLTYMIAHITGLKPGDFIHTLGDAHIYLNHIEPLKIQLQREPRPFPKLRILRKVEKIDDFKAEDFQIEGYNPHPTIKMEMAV
Sequence of TS (P04818 whole entry): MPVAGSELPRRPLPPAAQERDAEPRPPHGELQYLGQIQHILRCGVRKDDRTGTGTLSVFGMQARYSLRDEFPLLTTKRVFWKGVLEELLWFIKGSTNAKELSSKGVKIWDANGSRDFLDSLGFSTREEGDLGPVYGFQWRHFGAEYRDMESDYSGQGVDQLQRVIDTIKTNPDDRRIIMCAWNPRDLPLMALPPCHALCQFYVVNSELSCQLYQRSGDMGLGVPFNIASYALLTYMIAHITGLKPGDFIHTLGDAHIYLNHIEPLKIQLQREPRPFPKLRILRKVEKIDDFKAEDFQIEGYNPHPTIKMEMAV
T2 sequence (P04818 2-313 limits assumed): as the sequence (P04818 2-313 limits assumed) above

Structure (SMILES) | IC50 (K562 cells; 72 hours incubation, read-out: IC50 cell viability) | IC50 (K562 cells; read-out: IC50 cell proliferation) | binding to TS by surface plasmon resonance (steady state affinity) (TS) | Tagg shift of TS in K562 cell lysates (TS in K562 cell lysates; 200 μM compound, lysate with 200 μM dUMP) | EC50 [1] | stabilization of TS in treated K562 lysates (TS in K562 cell lysates; 200 µM decitabine)
Cc1cc(O)nc2sc(C(=O)c3ccccc3)c(N)c12 [CBK115334, 3-amino-2-benzoyl-4-methylthieno(2,3-b)pyridin-6-ol] | 88 ± 15 µM | < 100 µM | low μM range | 3.7 °C |  | 
Nc1ncn([C@H]2C[C@H](O)[C@@H](CO)O2)c(=O)n1 [decitabine, 5-Aza-deoxycytidine] |  |  |  |  | 6.87e-08 M | not stabilized

From PMC4820820, “CETSA screening identifies known and novel thymidylate synthase inhibitors and slow intracellular activation of 5-fluorouracil” (Nature Communications, 2016)
